According to patent US9969716B2, “Indole derivatives as modulators of methyl modifying enzymes, compositions and uses thereof” (Constellation Pharmaceuticals, Inc., priority 2013, dated 2018):

Columns and labels:
EZH2 = EZH2 (Homo sapiens, UniProt Q15910); test: EZH2 assay (rPRC2, 3H SAM methyl transfer to biotinylated oligonucleosomes, FlashPlate); assay type: biochemical
Outline: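 rPRC2 (2 nM EZH2) with 0.2 μM biotinylated oligonucleosomes, 3.6 μM H3K27me3 peptide, 0.2 μM 3H SAM in pH 8.5 Tris buffer; compounds (80 to 0.16 μM) preincubated 20 min, reaction 60 min, SAH/EDTA quench. Methylated product captured on streptavidin FlashPlates, scintillation counted.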

Y641N EZH2 = Y641N EZH2 (Homo sapiens, UniProt Q15910, Y641N); test: Y641N EZH2 assay (as EZH2 assay, H3K27Me2 oligonucleosomes as substrate); assay type: biochemical
Procedure: EZH2 Assay: Assays were carried out by mixing rPRC2 together with biotinylated oligonucleosome substrates in the presence of the radio-labeled enzyme co-factor, S-adenosyl-L-methionine (^3H SAM) (Perkin Elmer) and monitoring the enzymatically mediated transfer of tritiated methyl groups from ^3H SAM to histone lysine residues. The amount of resulting tritiated methyl histone product was measured by first capturing the biotinylated oligonucleosomes in streptavidin (SAV) coated FlashPlates (Perkin Elmer), followed by a wash step to remove un-reacted ^3H SAM, and then counting on a TopCount NXT 384 well plate scintillation counter (Perkin Elmer). The final assay conditions for EZH2 were as follows: 50 mM Tris Buffer pH 8.5, 1 mM DTT, 69 μM Brij-35 detergent, 5.0 mM MgCl2, 0.1 mg/mL BSA, 0.2 μM ^3H SAM, 0.2 μM biotinylated oligonucleosomes, 3.6 μM H3K27me3 peptide and 2 nM EZH2.
A 12.5 μL volume of the HMT enzyme, H3K27me3 peptide and oligonucleosome substrate in assay buffer was added to each well of the assay plate using a Multidrop Combi (ThermoFisher). Compounds were pre-incubated with the enzyme for 20 min, followed by initiation of the methyltransferase reaction by addition of 12.5 μL of ^3H SAM in assay buffer (final volume=25 μL). The final concentrations of compounds ranged from a top default concentration of 80 μM down to 0.16 μM in ten 2-fold dilution steps. Reactions were carried out for 60 minutes and quenched with 20 μL per well of 1.96 mM SAH, 50 mM Tris pH 8.5, 200 mM EDTA. Stopped reactions were transferred to SAV coated Flashplates (Perkin Elmer), incubated for 120 min, washed with a plate washer, and then read on the TopCount NXT (1.0 min/well) to measure the amount of methyl histone product formed during the reaction.

[1] = test system: H3K27me3 mark in HeLa cells; test: H3K27me3 Alpha Hela Assay (AlphaLISA); assay type: cell-based; settings: Homo sapiens, 72 hrs, read-out: EZH2_Cell_H3K27me3_Alpha_HeLa (EC50_K27me3)
Outline: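 Ten-dose 3-fold series on HeLa cells (1,000/well, 10% DMEM), 72 hrs at 37° C. Lysis, histone extraction, then AlphaLISA with anti-K27me3 acceptor beads, biotinylated anti-H3 C-ter antibody (3 nM final) and streptavidin donor beads (20 μg/mL final); duplicate plate used for viability. DMSO-normalized dose-response curves fitted.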

Y641N EZH2, sequence (Q15910 whole entry Y641N): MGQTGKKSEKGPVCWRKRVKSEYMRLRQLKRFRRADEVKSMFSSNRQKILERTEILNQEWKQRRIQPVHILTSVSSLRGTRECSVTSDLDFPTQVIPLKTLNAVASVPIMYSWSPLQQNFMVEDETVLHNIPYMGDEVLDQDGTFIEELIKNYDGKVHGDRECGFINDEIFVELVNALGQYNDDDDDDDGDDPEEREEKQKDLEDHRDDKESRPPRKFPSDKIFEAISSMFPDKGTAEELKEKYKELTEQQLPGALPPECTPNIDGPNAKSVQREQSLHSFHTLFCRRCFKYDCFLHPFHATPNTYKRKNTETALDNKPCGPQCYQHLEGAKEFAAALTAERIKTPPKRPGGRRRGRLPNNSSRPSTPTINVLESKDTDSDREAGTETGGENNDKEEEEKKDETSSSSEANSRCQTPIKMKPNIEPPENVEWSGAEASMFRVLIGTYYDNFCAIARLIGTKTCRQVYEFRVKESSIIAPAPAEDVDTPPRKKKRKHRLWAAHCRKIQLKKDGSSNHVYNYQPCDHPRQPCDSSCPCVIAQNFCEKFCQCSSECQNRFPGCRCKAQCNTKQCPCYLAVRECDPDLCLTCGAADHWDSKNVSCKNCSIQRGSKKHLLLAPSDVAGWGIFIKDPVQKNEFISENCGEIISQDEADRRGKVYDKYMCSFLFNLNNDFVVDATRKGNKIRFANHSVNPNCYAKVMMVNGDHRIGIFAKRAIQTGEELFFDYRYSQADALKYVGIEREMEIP
Y641N EZH2, sequence (O75530 whole entry partner): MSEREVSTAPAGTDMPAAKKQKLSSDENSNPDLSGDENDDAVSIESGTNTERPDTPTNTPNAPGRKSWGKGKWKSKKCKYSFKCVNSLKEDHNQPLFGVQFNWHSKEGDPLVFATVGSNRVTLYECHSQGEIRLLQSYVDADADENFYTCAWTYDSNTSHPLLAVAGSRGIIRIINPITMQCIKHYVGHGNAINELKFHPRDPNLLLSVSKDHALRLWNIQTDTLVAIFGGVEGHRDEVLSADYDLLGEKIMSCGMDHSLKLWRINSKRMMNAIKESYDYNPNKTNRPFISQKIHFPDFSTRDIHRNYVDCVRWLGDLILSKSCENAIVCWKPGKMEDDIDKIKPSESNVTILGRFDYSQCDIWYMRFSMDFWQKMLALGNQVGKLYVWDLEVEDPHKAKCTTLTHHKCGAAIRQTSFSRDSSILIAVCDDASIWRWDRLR
Y641N EZH2, sequence (Q15022 whole entry partner): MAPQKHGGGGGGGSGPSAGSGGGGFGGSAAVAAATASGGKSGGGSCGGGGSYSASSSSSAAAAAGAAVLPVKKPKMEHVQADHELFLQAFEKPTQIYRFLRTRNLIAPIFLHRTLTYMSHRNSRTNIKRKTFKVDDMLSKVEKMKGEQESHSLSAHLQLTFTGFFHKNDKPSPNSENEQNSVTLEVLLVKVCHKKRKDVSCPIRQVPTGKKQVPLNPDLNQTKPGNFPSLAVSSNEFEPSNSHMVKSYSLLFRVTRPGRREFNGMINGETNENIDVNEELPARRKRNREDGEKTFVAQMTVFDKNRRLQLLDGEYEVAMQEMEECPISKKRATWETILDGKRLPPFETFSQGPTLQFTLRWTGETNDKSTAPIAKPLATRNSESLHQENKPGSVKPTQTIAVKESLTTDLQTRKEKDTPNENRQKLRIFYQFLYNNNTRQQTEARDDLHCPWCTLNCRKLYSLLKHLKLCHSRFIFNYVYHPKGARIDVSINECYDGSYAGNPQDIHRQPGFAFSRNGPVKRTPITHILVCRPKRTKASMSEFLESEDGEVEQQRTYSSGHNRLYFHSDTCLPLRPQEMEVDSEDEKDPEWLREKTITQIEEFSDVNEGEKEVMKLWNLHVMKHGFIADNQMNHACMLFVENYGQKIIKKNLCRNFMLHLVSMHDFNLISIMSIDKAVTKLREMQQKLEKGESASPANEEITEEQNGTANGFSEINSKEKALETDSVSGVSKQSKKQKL
EZH2, sequence (Q15910 whole entry): as the sequence (Q15910 whole entry Y641N) above, with N641Y counted along it
EZH2, sequence (O75530 whole entry partner): as the sequence (O75530 whole entry partner) above
EZH2, sequence (Q15022 whole entry partner): as the sequence (Q15022 whole entry partner) above

| SMILES | IC50 (EZH2) [nM] | IC50 (Y641N EZH2) [nM] | EC50 [1] [nM] |
| --- | --- | --- | --- |
| COc1cc(C)[nH]c(=O)c1CNC(=O)c1c(C)n([C@H](C)C2CCN(c3ncc(Cl)cn3)CC2)c2ccccc12 [Compound 130] | < 100 | < 100 | < 400 |
| COc1cc(C)[nH]c(=O)c1CNC(=O)c1c(C)n([C@H](C)C2CCN(c3ccc(F)cn3)CC2)c2ccccc12 [Compound 131] | < 100 | < 100 | < 400 |
| COc1cc(C)[nH]c(=O)c1CNC(=O)c1c(C)n([C@H](C)C2CCN(c3ccc(C)nc3)CC2)c2ccccc12 [Compound 133] | < 100 | < 100 | < 400 |
| Cc1cc(C)c(CNC(=O)c2c(C)n([C@H](C)C3CCN(S(=O)(=O)CCN4CCOCC4)CC3)c3ccccc23)c(=O)[nH]1 [Compound 134] | < 100 | < 100 | < 400 |
| COc1cc(C)[nH]c(=O)c1CNC(=O)c1c(C)n([C@H](C)C2CCN(CC(C)(C)C(F)(F)F)CC2)c2ccccc12 [Compound 136] | 100 to 1000 | 100 to 1000 | < 400 |
| COc1cc(C)[nH]c(=O)c1CNC(=O)c1c(C)n([C@H](C)C2CCN(S(=O)(=O)c3ccc(F)cc3)CC2)c2ccccc12 [Compound 137] | < 100 | < 100 | < 400 |
| COc1cc(C)[nH]c(=O)c1CNC(=O)c1c(C)n([C@H](C)C2CCN(S(=O)(=O)c3ccccc3)CC2)c2ccccc12 [Compound 138] | < 100 | < 100 | < 400 |
| Cc1cc(C)c(CNC(=O)c2c(C)n([C@H](C)C3CCN(S(=O)(=O)C4CCN(C)CC4)CC3)c3ccccc23)c(=O)[nH]1 [Compound 139] | < 100 | < 100 | < 400 |
| COCCOCCOC(=O)N1CCC([C@@H](C)n2c(C)c(C(=O)NCc3c(OC)cc(C)[nH]c3=O)c3ccccc32)CC1 [Compound 140] | < 100 | < 100 | < 400 |
| COc1cc(C)[nH]c(=O)c1CNC(=O)c1c(C)n([C@H](C)C2CCN(c3ccc(F)cc3)CC2)c2ccccc12 [Compound 141] | < 100 | < 100 | < 400 |
| Cc1cc(Cl)c(CNC(=O)c2c(C)n([C@H](C)C3CCN(CC(C)(C)O)CC3)c3ccccc23)c(=O)[nH]1 [Compound 142] | < 100 | < 100 | < 400 |
| Cc1cc(OC(F)F)c(CNC(=O)c2c(C)n([C@H](C)C3CCN(CCC(F)(F)F)CC3)c3ccccc23)c(=O)[nH]1 [Compound 143] | < 100 | < 100 | < 400 |
| Cc1cc(C)c(CNC(=O)c2c(C)n([C@H](C)C3CCN(c4cccc(CN5CCOCC5)c4)CC3)c3ccccc23)c(=O)[nH]1 [Compound 144] | < 100 | < 100 | 400 to 2000 |
| COc1cc(C)[nH]c(=O)c1CNC(=O)c1c(C)n([C@H](C)C2CCN(CC3CC3)CC2)c2ccccc12 [Compound 145] | < 100 | < 100 | 400 to 2000 |
| CNc1cc(C)[nH]c(=O)c1CNC(=O)c1c(C)n([C@H](C)C2CCN(c3ncc(F)cn3)CC2)c2ccccc12 [Compound 146] | < 100 | < 100 | 400 to 2000 |
| Cc1cc(C)c(CNC(=O)c2c(C)n([C@H](C)C3CCN(S(=O)(=O)C4CN(C)C4)CC3)c3ccccc23)c(=O)[nH]1 [Compound 147] | < 100 | < 100 | 400 to 2000 |
| COc1cc(C)[nH]c(=O)c1CNC(=O)c1c(C)n([C@H](C)C2CCN(Cc3ccccn3)CC2)c2ccccc12 [Compound 148] | < 100 | < 100 | 400 to 2000 |
| COc1cc(C)[nH]c(=O)c1CNC(=O)c1c(C)n([C@H](C)C2CCN(c3cnccn3)CC2)c2ccccc12 [Compound 149] | < 100 | < 100 | 400 to 2000 |

| SMILES | IC50 (EZH2) [nM] | IC50 (Y641N EZH2) [nM] | EC50 [1] [nM] |
| --- | --- | --- | --- |
| COc1cc(C)[nH]c(=O)c1CNC(=O)c1c(C)n([C@H](C)C2CCN(Cc3c(F)cccc3F)CC2)c2ccccc12 [Compound 150] | < 100 | < 100 | 400 to 2000 |
| CCc1cc(C)[nH]c(=O)c1CNC(=O)c1c(C)n([C@H](C)C2CCN(CCC(F)(F)F)CC2)c2ccccc12 [Compound 151] | < 100 | < 100 | 400 to 2000 |
| COc1cc(C)[nH]c(=O)c1CNC(=O)c1c(C)n([C@H](C)C2CCN(CCCC(F)(F)F)CC2)c2ccccc12 [Compound 152] | < 100 | < 100 | 400 to 2000 |
| COc1cc(C)[nH]c(=O)c1CNC(=O)c1c(C)n([C@H](C)C2CCN(C(=O)c3ccccc3)CC2)c2ccccc12 [Compound 153] | < 100 | < 100 | 400 to 2000 |
| COc1cc(C)[nH]c(=O)c1CNC(=O)c1c(C)n([C@H](C)C2CCN(c3ccc(Cl)cc3)CC2)c2ccccc12 [Compound 154] | < 100 | < 100 | 400 to 2000 |
| CNc1cc(C)[nH]c(=O)c1CNC(=O)c1c(C)n([C@H](C)C2CCN(CCC(F)(F)F)CC2)c2ccccc12 [Compound 155] | < 100 | < 100 | 400 to 2000 |
| COc1cc(C)[nH]c(=O)c1CNC(=O)c1c(C)n([C@H](C)C2CCN(C[C@H](O)C(F)(F)F)CC2)c2ccccc12 [Compound 156] | < 100 | < 100 | 400 to 2000 |
| COc1cc(C)[nH]c(=O)c1CNC(=O)c1c(C)n([C@H](C)C2CCN(C(=O)C3CC3)CC2)c2ccccc12 [Compound 157] | < 100 | < 100 | 400 to 2000 |
| COc1cc(C)[nH]c(=O)c1CNC(=O)c1c(C)n([C@H](C)C2CCN(C(=O)N(C)C)CC2)c2ccccc12 [Compound 158] | < 100 | < 100 | 400 to 2000 |
| Cc1cc(C)c(CNC(=O)c2c(C)n([C@H](C)C3CCN(c4ccc(CN5CCOCC5)cn4)CC3)c3ccccc23)c(=O)[nH]1 [Compound 159] | < 100 | < 100 | 400 to 2000 |
| Cc1cc(C)c(CNC(=O)c2c(C)n([C@H](C)C3CCN(c4ccc(CN5CCOCC5)cc4)CC3)c3ccccc23)c(=O)[nH]1 [Compound 160] | < 100 | < 100 | 400 to 2000 |
| Cc1cc(C)c(CNC(=O)c2c(C)n([C@H](C)C3CCN(S(=O)(=O)CCN4CCCC4)CC3)c3ccccc23)c(=O)[nH]1 [Compound 161] | < 100 | < 100 | 400 to 2000 |
| Cc1cc(C)c(CNC(=O)c2c(C)n([C@H](C)C3CCN(C(=O)N4CCN(C)CC4)CC3)c3ccccc23)c(=O)[nH]1 [Compound 162] | < 100 | < 100 | 400 to 2000 |
| COc1cc(C)[nH]c(=O)c1CNC(=O)c1c(C)n([C@H](C)C2CCN(c3ccncn3)CC2)c2ccccc12 [Compound 164] | < 100 | < 100 | > 2000 |
| COCCOCCOCCOCCOCCOCCOC(=O)N1CCC([C@@H](C)n2c(C)c(C(=O)NCc3c(OC)cc(C)[nH]c3=O)c3ccccc32)CC1 [Compound 165] | < 100 | 100 to 1000 | > 2000 |
| COc1cc(C)[nH]c(=O)c1CNC(=O)c1c(C)n([C@H](C)C2CCN(C(CF)CF)CC2)c2ccccc12 [Compound 166] | < 100 | < 100 | > 2000 |
| COc1cc(C)[nH]c(=O)c1CNC(=O)c1c(C)n([C@H](C)C2CCN(C(=O)N3CCOCC3)CC2)c2ccccc12 [Compound 167] | < 100 | < 100 | > 2000 |
| CCN(CC)C(=O)CN1CCC([C@@H](C)n2c(C)c(C(=O)NCc3c(OC)cc(C)[nH]c3=O)c3ccccc32)CC1 [Compound 168] | < 100 | < 100 | > 2000 |
